Experimental data: patent publication US10251842B1, “Nanocapsule containing a bioactive compound, and a method of reducing toxicity resulting from cancer therapy” (King Abdulaziz University, priority 2017, dated 2019)
Marks after values point to notes of the source that are not given here.

How the values were obtained:
[1] = test system: SUIT2 pancreatic cancer cells; test: MTT cell viability/proliferation assay, SUIT2; type: cell-based, human; conditions: SUIT2, 24 hours, 1 μg/ml
Description: SUIT2-luc cells were grown in DMEM supplemented with 5% fetal bovine serum, 1% penicillin, and 1% streptomycin. Cells were cultured at 37° C. to sub-confluence and treated with 0.25% w/v typsin/EDTA to affect cell release from culture flask. After washing cells with culture medium, cells were suspended in DMEM (free of phenol red and fetal bovine serum) and counted.
SUIT2 cells were subjected to treatment with unencapsulated DIM, unencapsulated EA, combinations thereof, and the nanocapsules containing DIM and/or EA at concentrations of the bioactive compounds ranging from 0.1 to 10 μg. Briefly, cells were seeded at a density of 10^4 cells/well in 96-well plates, and then incubated with compounds and nanocapsules for 24 hours. Cell viability/proliferation was determined by MTT assay, as per the manufacturer's protocol. MTT solution was added to each well, and cells were further incubated for 4 hours at 37° C. The formed dye was solubilized by the addition of 50 μL of DMSO and incubated for 10 min at 37° C. The optical density of each well was determined using an ELISA plate reader at an activation wavelength of 570 nm and reference wavelength of 650 nm. The percentage of viable cells was determined by comparison to untreated control cells.

cisplatin-induced NF-κB = test: NF-κB luciferase assay in HeLa cells stimulated with cisplatin; type: cell-based; conditions: Homo sapiens, 3 μM (3 μM total for combinations), n = 3, read-out: Mean % inhibition of cisplatin-induced NFkB ± SD
Description: The induction of NF-κB by cisplatin and other chemotherapies is known to be associated with neuropathy and nephrotoxicity. In this example, the effect of unencapsulated DIM and EA, and the nanocapsules cisplatin-induced NF-κB was studied using HeLa cells which expressed NF-κB.
HeLa cells were seeded at 1×10^5 cells in 2 ml/well in 6-well plates at 37° C. for 24 hours. The doses of the test compounds were based on preliminary studies. Test compounds (nanocapsules containing DIM, nanocapsules containing E&, nanocapsules containing DIM and EA, unencapsulated DIM, and unencapsulated EA) were added at concentrations ranging from 1-3 μM to the plate with fresh medium including 0.5% FBS and incubated at 37° C. in 5% CO2 for an additional 3 hours. For induction of transcription and to test the biological response of the promoters, the cell line stimulated with cisplatin (Sigma) and the cells were incubated at 37° C. in 5% CO2 for 24 hours. The luciferase activity determined by using the luciferase assay system (Promega, Madison, Wis., US). […] Luminescence was immediately measured using Glomax 20/20 Illuminometer (Promega). Luciferase expression of each test compound was quantified as the relative light units (RLU), normalized to readings of control wells, and expressed as relative NF-κB reporter activity. The mean % inhibitory effects of the compounds were calculated.

SUIT2 pancreatic tumor = test: CAM pancreatic cancer cell implant model (tumor growth, tumor angiogenesis, IVIS bioluminescence); type: in vivo, chick embryo; conditions: for suppression of vascular pattern / tumor angiogenesis of pancreatic tumor: 1 μg/CAM, 3 days of incubation, nanocapsules versus unencapsulated; for viable pancreatic cancer cells, bioluminescence (IVIS): SUIT2-luc tumors, ex vivo imaging
Description: To determine the relative potency of different nanocapsules and unencapsulated bioactive compounds, they were tested in the CAM pancreatic cancer cell implant model of tumor growth and tumor angiogenesis by modifying published protocols (Marcinkiewicz C. Weinreb P H, Calvete J J, Kisiel D G, Mousa S A, Tuszynski G P, Lobb R R. A Potent Selective Inhibitor of alpha1beta1 Integrin in Vitro and Angiogenesis in Vivo. Cancer Res. 2003; 63(9): 2020-2023; and Deryugina E I and Quigley J P: Chick Embryo Chorioallantoic Membrane Models to Quantify Angiogenesis induced by inflammatory and tumor cells or purified effector molecules. Methods in Enzymol. 2008; 444: 21-41, each incorporated herein by reference in their entirety).
A 7-day old chick embryo were purchased from Spafas, Inc. (Preston, Conn.) and incubated at 37° C. with 55% relative humidity. A hypodermic needle was used to make a small hole in the shell at the air sac and a second hole will be made on the broadside of the egg, directly over an avascular portion of the embryonic membrane that was identified by candling. A false air sac was created beneath the second hole by the application of negative pressure at the first hole, causing the CAM to separate from the shell. […] Treatment effects (Tumor growth, and tumor angiogenesis were determined 7 days after tumor cell implantation. For these studies, Matrigel® (BD Bioscience, San Jose Calif.) were thawed overnight at 4° C. and placed on ice. Cells in exponential growth phase were harvested using 0.25% trypsin-EDTA washed and suspended in medium. Only suspensions of single cells with a viability exceeding 95% were used. Approximately 1×10^6 cells in 30 μL of medium mixed with same volume (30 μL) of Matrigel was implanted on the chorioallantoic membrane.
After incubation at 37° C. with 55% relative humidity for 3 days, the CAM tissue directly beneath each filter disk was resected from control and treated CAM samples. […] Digital images of CAM sections exposed to filters were collected, using a 3-CCD color video c vera system (Toshiba America, New York, N.Y.), and analyzed with Image-Pro software (Media Cybernetics, Silver Spring, Md.). The numbers of vessel branch points contained in a circular region equal to the area of each filter disk were counted. One image was counted in each CAM preparation, and findings from 6-8 CAM preparations group were analyzed for each treatment condition.
Results presented as mean tumor weight (mg) per treatment group and tumor hemoglobin (mg/dl)±SD, n=8 eggs per group. The effect of these treatments was determined after 7 days of implantation. […]

[2] = Plasma cardiac troponin in MCF-7 tumor bearing mice; type: in vivo
[3] = test system: breast cancer MCF-7 tumor; test: Subcutaneous xenograft in nude mice, breast cancer MCF-7; type: in vivo; conditions: SC, mean ± SEM, n = 4-5 animals/group
Description: Immunodeficient, female NCr nude mice aged 5-6 weeks and weighing between […] were maintained under specific pathogen-free conditions and housed under controlled conditions of temperature (20-24° C.) and humidity (60-70%) and 12 h light/dark cycle with ad libitum access to water and food. Mice were allowed to acclimatize for 5 days prior to the start of study.
Xenografts containing 1×10^6 to 2×10^6 tumor cells (e.g., pancreatic SUIT2, colon HT-29, glioblastoma U87, or breast cancer MCF-7 cells) were implanted subcutaneously in a mouse flank. There were 2 grafts mouse and there were 4 mice in each group (control, treatments using vehicle). DMSO or ethyl acetate used during the preparation of nanocapsules was totally removed by dialysis and the vehicle used to disperse the DIM or EA and their nanocapsule forms was phosphate buffered saline (PBS).
Tumors were excised at the end of the study from all treatment arms, which included control; DIM; EA; nanocapsule containing DIM; nanocapsule containing EA; nanocapsule containing DIM acid EA; nanocapsule containing cisplatin; nanocapsule containing doxorubicin; nanocapsule containing cisplatin, DIM, and EA; and nanocapsule containing doxorubicin, DIM, and EA. Tumor growth was measured.

| plasma cardiac troponin ([2]; MCF-7 tumor bearing mice) | Troponin (% from control) ([2]; mice, SC) | SMILES | effect on cell viability/proliferation [1] | inhibition at 3 µM (cisplatin-induced NF-κB) [%] | suppression of vascular pattern / tumor angiogenesis of pancreatic tumor (SUIT2 pancreatic tumor) | viable pancreatic cancer cells, bioluminescence (IVIS) (SUIT2 pancreatic tumor) | Mean Breast (MCF-7) Tumor Growth [3] [g] |
| --- | --- | --- | --- | --- | --- | --- | --- |
| – | – | O=c1oc2c(O)c(O)cc3c(=O)oc4c(O)c(O)cc1c4c23 [Ellagic acid, ellagic acid] | did not show any significant effect | 26 ± 4 | mild suppression | statistically significant reduction | – |
| large increase | +50-70%** | COc1cccc2c1C(=O)c1c(O)c3c(c(O)c1C2=O)C[C@@](O)(C(=O)CO)C[C@@H]3O[C@H]1C[C@H](N)[C@H](O)[C@H](C)O1 [DOX, doxorubicin] | – | – | – | – | 0.70 ± 0.15 |
| – | – | c1ccc2c(Cc3c[nH]c4ccccc34)c[nH]c2c1 [DIM, 3,3′-diindolylmethane] | did not show any significant effect | 20 ± 5 | mild suppression | statistically significant reduction | – |
